{"source": "patent US10597696B2", "about": "“Detection of Niemann-Pick disease comprising detection of lysozyme and cathepsins” (UNIVERSITY OF NOTRE DAME DU LAC, priority 2013, dated 2020)", "key": {"[1]": {"test_system": "Npc1^nih Npc1^−/− mouse liver", "assay": "Immunohistochemistry of liver sections after HPβCD", "type": "in vivo", "procedure": "(§1) Mice were sacrificed by asphyxiation using CO2. The circulatory bed was washed with PBS (pH 7.4), and subsequently perfused with 10% neutral buffered formalin (˜4% formaldehyde). The organs (brain and liver) were surgically harvested and stored in 4% formaldehyde at room temperature (RT) until transfer to paraffin. Paraffin-embedded tissue sections (3-4 μm) were dewaxed in xylene and alcohol. For Ly-6G and calbindin staining, antigen retrieval was done by pre-incubating deparaffinized samples with 0.05% proteinase K (Dako, Germany) in 50 mM Tris-HCl (pH 7.5) for 8 min at RT. CTSS and lysozyme were retrieved by boiling the sections in acidic condition for 30 min. Sections were incubated with anti-Ly-6G (20 μg/ml), anti-calbindin (1:1000), anti-CTSS (20 μg/ml) or anti-lysozyme (1:20) overnight at 4° C. Reagents were prepared according to the manufacturer's instructions (Vector laboratories). The staining protocol was followed as described previously (19). The secondary antibody for neutrophil staining was biotinylated rabbit anti-rat IgG (mouse absorbed, Vector Laboratories) and for Purkinje neurons was biotinylated horse anti-mouse IgG (Vector Laboratories).\n(§2) For fluorescence microscopy, FITC-conjugated IgG (MP Biomedicals, Solon, Ohio, USA) was the secondary antibody. Sections stained only with secondary antibodies served as controls. Brightfield images were acquired on a Nikon Olympus microscope, using a Nikon digital DS-Fi1-U2 camera controlled by NIS-Elements F3.0 Nikon software (all from Nikon Instruments INC, Tokyo, Japan). Images were visualized with A10 PL 10×/0.25, or a DPIan Apo 40×/1.00 oil-immersion or a DPIan Apo 100×/1.30 oil-immersion objective lens (Nikon). Fluorescence microscopy and digital image collection were performed using an Olympus IX inverted fluorescence microscope and a Photometrix cooled CCD camera (CH350/LCCD) driven by DeltaVision software from Applied Precision (Seattle, Wash., USA). DeltaVision software (softWoRx) was used to deconvolve these images. Images were visualized with 40× oil-immersion objective lens and are single optical sections. ImageJ (National Institute of Health, Bethesda, Md., USA) software was used to process and quantify the fluorescence intensity of CTSS and lysozyme.\n(§3) Starting at P21 and once a week thereafter, Npc1^nih and Npc1^nmf164 mice were injected i.p with 20% 2-hydroxypropyl-beta-cyclodextrin (HPβCD, 4000 mg/Kg) prepared in 0.2% DMSO and 0.9% saline. Control mice received 0.2% DMSO in 0.9% saline. Blood was collected either via cheek bleed or terminal heart bleed from mice in EDTA tubes (BD Biosciences, San Jose, Calif., USA). Plasma was separated by centrifugation at 2500 rpm for 15 min and stored at −70° C. until used."}, "[2]": {"test_system": "Npc1^nih Npc1^−/− mouse brain", "assay": "qPCR of cathepsins and inflammatory markers in brain after HPβCD", "type": "in vivo", "description": "In mice, formalin fixed paraffin embedded tissue was sectioned (4-5 μm) and total RNA was isolated using RNeasy FFPE kit (Qiagen, Germantown, Md., USA) which included treatment with DNAse. Frozen human liver and cerebellum from 4 NPC patients and 4 age-, gender- and ethnicity-matched controls were obtained from the NICHD Brain and Tissue Bank for Developmental Disorders (University of Maryland, Baltimore, Md., USA), as approved by the Institutional Review Board (IRB), of the University of Notre Dame, Ind., USA (FWA 00002462). Total RNA was isolated using RNeasy kit (Qiagen, Germantown, Md., USA). Eluted RNA was further digested with RNase free DNaseI and re-purified using RNeasy column. The quality of RNA was checked using Bioanalyzer chip (Agilent Technologies, Santa Clara, Calif., USA) and quantity was determined using Nanodrop 2000 (Thermo Fisher Scientific, Waltham, Mass., USA). Quantitative PCR (qPCR) was performed using Power SYBR Green RNA-to-CT 1-Step Kit and an ABI Prism 7500 Fast real-time PCR system (Applied Biosystems, Grand Island, USA). Reaction was set in 20 μl using 100 nM primers and 5-100 ng total RNA as template. The thermal cycling parameters were as follows: step 1, 48° C. for 30 min; step 2, 95° C. for 10 min; step 3, 95° C. for 15 sec ° C.; step 4, 60° C. for 15 sec. Step 3-4 was repeated for 40 cycles followed by melt curve analysis. Specific amplification was validated by analysis of template titration, melt curves and agarose gel electrophoresis. In both mouse and human tissues, the mRNA levels were normalized to the housekeeping gene, Gapdh (Glyceraldehyde 3-phosphate dehydrogenase). Fold change was calculated by relative standard curve method after correcting PCR efficiency. In mice, the fold change in expression levels of different genes in Npc1^−/− was calculated relative to average levels of expression in Npc1^+/− mice. In human tissues, fold change in transcript expression in NPC liver and cerebellum was expressed relative to average expression in age-matched controls. Starting at P21 and once a week thereafter, Npc1^nih and Npc1^nmf164 mice were injected i.p with 20% 2-hydroxypropyl-beta-cyclodextrin (HPβCD, 4000 mg/Kg) prepared in 0.2% DMSO and 0.9% saline. Control mice received 0.2% DMSO in 0.9% saline. Blood was collected either via cheek bleed or terminal heart bleed from mice in EDTA tubes (BD Biosciences, San Jose, Calif., USA). Plasma was separated by centrifugation at 2500 rpm for 15 min and stored at −70° C. until used."}, "Npc1^nih Npc1^−/− mice": {"test_system": "Npc1^nih Npc1^−/− mice", "assay": "Plasma 24(S)-hydroxy cholesterol ELISA after HPβCD", "type": "in vivo, mouse", "procedure": "as §3, with “Plasma 24-HC concentration was determined using ELISA kit from Enzo Life Sciences (Farmingdale, N.Y., USA) according to the manufacturer's instructions. Plasma was diluted to 1:1000 in supplied buffer and measurements were done in triplicate wells. Pure 24-HC (supplied with kit) was used to prepare the standard curve. 24-HC concentration was normalized to plasma protein content. Starting” for “Starting”"}, "[3]": {"test_system": "Npc1^nih Npc1^−/− mouse brain", "assay": "Immunohistochemistry of brain sections after HPβCD", "type": "in vivo", "conditions": "immunofluorescence", "procedure": "as §1\nas §2, with “DeltaVision software (softWoRx) was used to deconvolve these images. Images were visualized with 40× oil-immersion objective lens and are single optical sections.” left out, “lysozyme. […]” for “lysozyme.”"}}, "note": "Entries after “also recorded” stand apart in the source; their conditions may differ."}
{"smiles": "CC(O)COC[C@H]1O[C@@H]2O[C@H]3[C@H](O)[C@@H](O)[C@@H](O[C@H]4[C@H](O)[C@@H](O)[C@@H](O[C@H]5[C@H](O)[C@@H](O)[C@@H](O[C@H]6[C@H](O)[C@@H](O)[C@@H](O[C@H]7[C@H](O)[C@@H](O)[C@@H](O[C@H]8[C@H](O)[C@@H](O)[C@@H](O[C@H]1[C@H](O)[C@H]2O)O[C@@H]8COCC(C)O)O[C@@H]7COCC(C)O)O[C@@H]6COCC(C)O)O[C@@H]5COCC(C)O)O[C@@H]4COCC(C)O)O[C@@H]3COCC(C)O", "note": "(stereo partly drawn) [HPβCD, 2-hydroxypropyl-beta-cyclodextrin]", "values": [{"measurement": "CTSS accumulation in liver", "setting": "[1]; Npc1^−/− mice, anti-CTSS IHC", "value": "dramatically reduced"}, {"measurement": "accumulation of foamy macrophages in liver", "setting": "[1]; Npc1^−/− mice, anti-CTSS IHC", "value": "eliminated accumulation of foamy macrophages; also recorded: eliminated the foamy macrophages and CTSS staining"}, {"measurement": "neutrophil clusters in liver", "setting": "[1]; Npc1^−/− mice, anti-Ly-6G IHC, 50 and 80 days", "value": "reduced neutrophil clusters; also recorded: barely detected"}, {"measurement": "macrophages containing lysozyme in liver", "setting": "[1]; Npc1^−/− mice, anti-lysozyme staining", "value": "largely eliminated"}, {"measurement": "hepatocyte architecture", "setting": "[1]; animals treated with HPβCD, histochemistry", "value": "decreased cytoplasmic staining with slight irregular plasma membrane"}, {"measurement": "Lyz1 expression in brain, fold elevation", "setting": "[2]; HPβCD-treated Npc1^−/−, late stages, untreated ~81-fold", "value": "~28", "unit": "fold"}, {"measurement": "Gfap transcript in brain", "setting": "[2]; HPβCD-treated Npc1^−/−, untreated ~9-fold", "value": "slightly reduced"}, {"measurement": "Cd68 transcript in brain relative to Npc1^+/− mice", "setting": "[2]; HPβCD-treated Npc1^−/−, untreated ~24-fold", "value": "~6", "unit": "fold"}, {"measurement": "Mip-1α transcripts in brain, fold increase", "setting": "[2]; HPβCD-treated Npc1^−/−, untreated ~44-fold", "value": "~27", "unit": "fold"}, {"measurement": "transcripts of neuron specific 24-hydroxylase", "setting": "[2]; NPC mouse brain, qPCR", "value": "no effect"}, {"measurement": "expression of Ctsb in brain", "setting": "[2]; Npc1^−/− mice, qPCR", "value": "returned to normal levels"}, {"measurement": "expression of Ctsd in brain", "setting": "[2]; Npc1^−/− mice, qPCR", "value": "partial reduction"}, {"measurement": "expression of Ctss in brain", "setting": "[2]; Npc1^−/− mice, qPCR", "value": "partial reduction"}, {"measurement": "24(S)-HC level in plasma", "setting": "Npc1^nih Npc1^−/− mice", "value": "largely unaffected"}, {"measurement": "lysozyme levels in the cerebellum (white mater region)", "setting": "[3]; FIG. 19E-F", "value": "no significant effect"}, {"measurement": "reduction of lysozyme in molecular layer of the cerebellum", "setting": "[3]; FIG. 19I-K", "value": "~25", "unit": "%"}, {"measurement": "reduction of CTSS levels in hippocampal neurons", "setting": "[3]; ImageJ quantification", "value": "~20", "unit": "%"}]}
